Our source for the IC50 values is patent US9255090B2, “Heterocyclyl derivatives and their use as prostaglandin D2 receptor modulators” (Actelion Pharmaceuticals Ltd., priority 2012, dated 2016).

pIC50: −log10 of the molar value.

The target in this experiment is hCRTH2 receptor (Homo sapiens (Human), UniProt Q9Y5Y4). In words: hCRTH2 receptor membranes radioligand (3H-PGD2) displacement assay. It counts as binding. The note with it: 3H-PGD2 radioligand displacement, HEK293-hCRTH2 membranes. An outline of the steps:
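HEK293-hCRTH2 membranes, 20 μg/well; 3H-PGD2 added at 2.5 nM; binding buffer 50 mM Tris, 10 mM MnCl2, 1 mM EDTA, pH 7.0; 90 min RT; GF/C filtration, scintillation count. Nonspecific binding: PGD2 at […].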

Chain of hCRTH2 receptor (Q9Y5Y4 whole entry): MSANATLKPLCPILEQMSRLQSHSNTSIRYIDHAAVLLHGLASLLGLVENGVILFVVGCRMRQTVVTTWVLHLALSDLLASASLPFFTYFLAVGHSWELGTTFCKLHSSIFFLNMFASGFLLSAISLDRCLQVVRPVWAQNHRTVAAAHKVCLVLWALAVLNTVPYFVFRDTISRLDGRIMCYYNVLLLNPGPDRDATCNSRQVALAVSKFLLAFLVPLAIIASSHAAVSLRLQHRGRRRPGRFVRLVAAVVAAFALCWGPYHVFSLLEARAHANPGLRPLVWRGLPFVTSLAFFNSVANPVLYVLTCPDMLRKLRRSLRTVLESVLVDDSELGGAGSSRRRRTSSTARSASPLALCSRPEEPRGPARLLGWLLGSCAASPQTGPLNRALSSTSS

The compound `COc1ccc(CC(=O)O)cc1-c1c(F)ccc2c1CN(C(=O)[C@@H]1C[C@H]1c1ccccc1)CC2` [Example 35, {3-[7-Fluoro-2-((1R,2R)-2-phenyl-cyclopropanecarbonyl)-1,2,3,4-tetrahydro-isoquinolin-8-yl]-4-methoxy-phenyl}-acetic acid] had a pIC50 of 8.50.
The same measure for `COc1cccc(CC(=O)O)c1-c1ccc(F)c2c1CN(C(=O)OCc1ccccc1)CC2` [Example 418, 8-(2-Carboxymethyl-6-methoxy-phenyl)-5-fluoro-3,4-dihydro-1H-isoquinoline-2-carboxylic acid benzyl ester]: 6.45.
For `COc1ccc(CC(=O)O)cc1-c1ccc(F)c2c1CN(C(=O)[C@@H]1C[C@H]1c1cccc(Cl)c1)CC2` (racemic) [Example 4, (±)-(3-{2-[trans-2-(3-Chloro-phenyl)-cyclopropanecarbonyl]-5-fluoro-1,2,3,4-tetrahydro-isoquinolin-8-yl}-4-methoxy-phenyl)-acetic acid], the pIC50 is 8.27.
In the case of `O=C(O)Cc1ccc(-c2ccc(F)c3c2CN(C(=O)OCc2ccccc2)CC3)c(Cl)c1` [Example 165, 8-(4-Carboxymethyl-2-chloro-phenyl)-5-fluoro-3,4-dihydro-1H-isoquinoline-2-carboxylic acid benzyl ester], the negative-log IC50 (pIC50) was 7.58.
In turn, `CCOc1cc(CC(=O)O)ccc1-c1ccc(F)c2c1CN(C(=O)OCC1CCCC1)CC2` [Example 392, 8-(4-Carboxymethyl-2-ethoxy-phenyl)-5-fluoro-3,4-dihydro-1H-isoquinoline-2-carboxylic acid cyclopentylmethyl ester] showed a pIC50 of 8.23.
Consider `CC(C)(C)Oc1ccc(CC(=O)O)cc1-c1ccc(F)c2c1CN(C(=O)[C@@H]1C[C@H]1c1ccccc1)CC2` [Example 428, {4-tert-Butoxy-3-[5-fluoro-2-((1R,2R)-2-phenyl-cyclopropanecarbonyl)-1,2,3,4-tetrahydro-isoquinolin-8-yl]-phenyl}-acetic acid], for which the pIC50 is 8.43.
Compound `COc1ccc(CC(=O)O)cc1-c1ccc(Cl)c2c1CN(C(=O)CCc1ccccc1)CC2` [Example 76, {3-[5-Chloro-2-(3-phenyl-propionyl)-1,2,3,4-tetrahydro-isoquinolin-8-yl]-4-methoxy-phenyl}-acetic acid] gave a pIC50 of 7.37.
The same measure for `CCOc1cc(CC(=O)O)ccc1-c1ccc(F)c2c1CN(C(=O)OCc1ccnn1C)CC2` [Example 388, 8-(4-Carboxymethyl-2-ethoxy-phenyl)-5-fluoro-3,4-dihydro-1H-isoquinoline-2-carboxylic acid 2-methyl-2H-pyrazol-3-ylmethyl ester]: 8.42; for `C=C(C)CCOC(=O)N1CCc2c(F)ccc(-c3cc(CC(=O)O)ccc3OCC)c2C1` [Example 379, 8-(5-Carboxymethyl-2-ethoxy-phenyl)-5-fluoro-3,4-dihydro-1H-isoquinoline-2-carboxylic acid 3-methyl-but-3-enyl ester]: 8.60.
As to `COc1ccc(CC(=O)O)cc1-c1ccc(F)c2c1CN(C(=O)OCCc1scnc1C)CC2` [Example 153, 8-(5-Carboxymethyl-2-methoxy-phenyl)-5-fluoro-3,4-dihydro-1H-isoquinoline-2-carboxylic acid 2-(4-methyl-thiazol-5-yl)-ethyl ester], the pIC50 was 7.39.
`O=C(O)Cc1cccc(-c2ccc(F)c3c2CN(C(=O)OCc2ccccc2)CC3)c1` [Example 24, 8-(3-Carboxymethyl-phenyl)-5-fluoro-3,4-dihydro-1H-isoquinoline-2-carboxylic acid benzyl ester] gave a pIC50 of 7.16.
`COc1ccc(CC(=O)O)cc1-c1ccc(F)c2c1CN(C(=O)CC1COc3ccccc31)CC2` (racemic) [Example 270]: the pIC50 was 7.60.
As for `COc1ccc(CC(=O)O)cc1-c1ccc(F)c2c1CN(C(=O)CC1CCCCC1)CC2` [Example 127, {3-[2-(2-Cyclohexyl-acetyl)-5-fluoro-1,2,3,4-tetrahydro-isoquinolin-8-yl]-4-methoxy-phenyl}-acetic acid], the pIC50 was 6.75.
For `COc1ccc(CC(=O)O)cc1-c1ccc(F)c2c1CCN(C(=O)OCc1ccccc1)C2` [Example 159, 5-(5-Carboxymethyl-2-methoxy-phenyl)-8-fluoro-3,4-dihydro-1H-isoquinoline-2-carboxylic acid benzyl ester], the pIC50 is 6.23.
With `COc1ccc(CC(=O)O)cc1-c1ccc(S(C)(=O)=O)c2c1CN(C(=O)OCc1ccccc1)CC2` [Example 25, 8-(5-Carboxymethyl-2-methoxy-phenyl)-5-methanesulfonyl-3,4-dihydro-1H-isoquinoline-2-carboxylic acid benzyl ester], the pIC50 was 6.83.
Compound `O=C(O)Cc1ccc(OCC(F)(F)F)c(-c2ccc(F)c3c2CN(C(=O)CC2OCCc4ccccc42)CC3)c1` (racemic) [Example 306] gave a pIC50 of 8.13.
For the compound `COc1ccc(CC(=O)O)cc1-c1ccc(F)c2c1CCN(C(=O)[C@@H]1C[C@H]1c1ccccc1)C2` [Example 99, {3-[8-Fluoro-2-((1R,2R)-2-phenyl-cyclopropanecarbonyl)-1,2,3,4-tetrahydro-isoquinolin-5-yl]-4-methoxy-phenyl}-acetic acid], the pIC50 is 6.38.
The same measure for `COc1ccc(CC(=O)O)cc1-c1ccc(Cl)c2c1CN(C(=O)CCCc1ccccc1F)CC2` [Example 74, (3-{5-Chloro-2-[4-(2-fluoro-phenyl)-butyryl]-1,2,3,4-tetrahydro-isoquinolin-8-yl}-4-methoxy-phenyl)-acetic acid]: 7.98.
Turning to `COc1ccc(CC(=O)O)cc1-c1ccc(F)c2c1CN(C(=O)/C=C/c1nc3ccccc3s1)CC2` [Example 88, {3-[2-((E)-3-Benzothiazol-2-yl-acryloyl)-5-fluoro-1,2,3,4-tetrahydro-isoquinolin-8-yl]-4-methoxy-phenyl}-acetic acid], the pIC50 was 8.04.
Turning to `COc1ccc(CC(=O)O)cc1-c1c(F)ccc2c1CN(C(=O)OCc1ccccc1)CC2` [Example 33, 8-(5-Carboxymethyl-2-methoxy-phenyl)-7-fluoro-3,4-dihydro-1H-isoquinoline-2-carboxylic acid benzyl ester], the pIC50 was 6.95.
As to `COc1ccc(CC(=O)O)cc1-c1ccc(C(F)(F)F)c2c1CN(C(=O)OCc1ccccc1)CC2` [Example 158, 8-(5-Carboxymethyl-2-methoxy-phenyl)-5-trifluoromethyl-3,4-dihydro-1H-isoquinoline-2-carboxylic acid benzyl ester], the pIC50 is 7.17.
Consider `COc1ccc(CC(=O)O)cc1-c1ccc(F)c2c1CN(C(=O)CCc1cccnc1)CC2` [Example 51, {3-[5-Fluoro-2-(3-pyridin-3-yl-propionyl)-1,2,3,4-tetrahydro-isoquinolin-8-yl]-4-methoxy-phenyl}-acetic acid], for which the pIC50 was 7.24.
The compound `COc1ccc(CC(=O)O)cc1-c1ccc(F)c2c1CCN(C(=O)CCc1cn(C)c3ccccc13)C2` [Example 105, (3-{8-Fluoro-2-[3-(1-methyl-1H-indol-3-yl)-propionyl]-1,2,3,4-tetrahydro-isoquinolin-5-yl}-4-methoxy-phenyl)-acetic acid] showed a pIC50 of 7.75.
`CCOc1cc(CC(=O)O)ccc1-c1ccc(F)c2c1CN(C(=O)/C=C/c1cnn(C)c1)CC2` [Example 339, (3-Ethoxy-4-{5-fluoro-2-[(E)-3-(1-methyl-1H-pyrazol-4-yl)-acryloyl]-1,2,3,4-tetrahydro-isoquinolin-8-yl}-phenyl)-acetic acid] gave a pIC50 of 7.90.
